Laboratory results as given in patent US9242984B2, “Pyrazolyl derivatives as Syk inhibitors” (Merck Sharp & Dohme Corp., priority 2012, dated 2016).
pIC50: −log10 of the molar value.

Biological target: T1, recombinant human Syk (GST-hSyk fusion protein) (Homo sapiens, UniProt P43405)
T1 construct: purchased Carna Biosciences 08-176
Experiment: Homogeneous Time-Resolved Fluorescence (HTRF) assay for the recombinant human Syk enzyme
Format: biochemical
Conditions: 10-dose titration, 25 μM ATP; read-out: rhSYK IC50
In short: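 IC50 came from a four-parameter fit over ten doses, 10 μM to 0.508 nM, with HTRF read-out (Eu-anti-pTyr antibody, SA-APC, EDTA stop, 30 min). The enzyme, 5 pM GST-hSyk, met compound for 10 min, then phosphorylated 250 nM biotin-peptide with 25 μM ATP and 5 mM Mg for 45 min at room temperature, pH 7.5.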

pIC50	Compound
8.43	Cc1cc(Nc2nccc(C(F)F)n2)cc(-c2cnn(C3CCCC(O)C3O)c2)c1 (single isomer, unassigned) [Example 10.4, 3-[4-(3-{[4-(difluoromethyl)pyrimidin-2-yl]amino}-5-methylphenyl)-1H-pyrazol-1-yl]cyclohexane-1,2-diol]
8.77	Cc1cc(Nc2nccc(C(F)F)n2)cc(-c2cnn(C3CCCC(C)(O)C3O)c2)c1 (centres unmarked) [Example 22.6, 3-[4-(3-{[4-(difluoromethyl)pyrimidin-2-yl]amino}-5-methylphenyl)-1H-pyrazol-1-yl]-1-methylcyclohexane-1,2-diol]
8.59	Cc1cc(Nc2nccc(C(F)F)n2)cc(-c2cnn(CC(C)(O)C(F)(F)F)c2)c1 (single isomer, unassigned) [Example 24.1, (S or R)-3-(4-(3-((4-(difluoromethyl)pyrimidin-2-yl)amino)-5-methylphenyl)-1H-pyrazol-1-yl)-1,1,1-trifluoro-2-methylpropan-2-ol]

Same assay, conditions: IC50 class; 10-dose titration, 25 μM ATP; read-out: rhSYK Activity

Compound	pIC50
Cc1cc(Nc2nccc(C(F)F)n2)cc(-c2cnn(C[C@]3(O)C[C@H](C#N)C3)c2)c1 [Example 5.40, trans-3-{[4-(3-{[4-(difluoromethyl)pyrimidin-2-yl]amino}-5-methylphenyl)-1H-pyrazol-1-yl]methyl}-3-hydroxycyclobutane-carbonitrile]	≥ 7.00
Cc1cc(Nc2nccc(C(F)F)n2)cc(-c2cnn(C(C[C@H](C)O)[C@@H](C)O)c2)c1 (stereo in doubt) [Example 2.49, 3-[4-(3-{[4-(difluoromethyl)pyrimidin-2-yl]amino}-5-methylphenyl)-1H-pyrazol-1-yl]hexane-2,5-diol]	≥ 7.00
Cc1cc(Nc2nccc(C(F)F)n2)cc(-c2cnn(C(C)C3CNC(=O)C3)c2)c1 (centres unmarked) [Example 2.69, 4-{1-[4-(3-{[4-(difluoromethyl)pyrimidin-2-yl]amino}-5-methylphenyl)-1H-pyrazol-1-yl]ethyl}pyrrolidin-2-one]	≥ 7.00
Cc1cc(Nc2cc(C(F)F)ccn2)nc(-c2cnn(C(C)C3CNC(=O)C3)c2)c1 (centres unmarked) [Example 1.64, 4-{1-[4-(6-{[4-(difluoromethyl)pyridin-2-yl]amino}-4-methylpyridin-2-yl)-1H-pyrazol-1-yl]ethyl}pyrrolidin-2-one]	≥ 7.00
Cc1cc(Nc2nccc(C(F)(F)F)n2)cc(-c2cnn(CC(O)c3ccc(C(=O)O)cc3)c2)c1 (centres unmarked) [Example 3.53, 4-{1-hydroxy-2-[4-(3-methyl-5-{[4-(trifluoromethyl)pyrimidin-2-yl]amino}-phenyl)-1H-pyrazol-1-yl]ethyl}benzoic acid]	≥ 7.00
6-methyl-2-(1H-pyrazol-4-yl)-N-[4-(trifluoro-methyl)pyridin-2-yl]pyrimidin-4-amine [Example 1.41]	≥ 7.00
Cc1cc(Nc2nccc(C(F)(F)F)n2)cc(-c2cnn3cccnc23)c1 [Example 2.37, N-(3-methyl-5-pyrazolo[1,5-a]pyrimidin-3-ylphenyl)-4-(trifluoromethyl)pyrimidin-2-amine]	6.00 to 7.00
Cc1cc(Nc2nccc(C(F)F)n2)cc(-c2cnn(CC(O)C(=O)O)c2)c1 (centres unmarked) [Example 5.36, 3-[4-(3-{[4-(difluoromethyl)pyrimidin-2-yl]amino}-5-methylphenyl)-1H-pyrazol-1-yl]-2-hydroxypropanoic acid]	≥ 7.00
Cc1cc(Nc2cc(C(F)F)ccn2)nc(-c2cnn(CC3CNC(=O)O3)c2)c1 (centres unmarked) [Example 3.81, 5-{[4-(6-{[4-(difluoromethyl)pyridin-2-yl]amino}-4-methylpyridin-2-yl)-1H-pyrazol-1-yl]methyl}-1,3-oxazolidin-2-one]	≥ 7.00
COC(=O)[C@H](O)Cn1cc(-c2cc(C)cc(Nc3nccc(C(F)(F)F)n3)c2)cn1 [Example 5.3, methyl (2R)-2-hydroxy-3-[4-(3-methyl-5-{[4-(trifluoro-methyl)pyrimidin-2-yl]amino}phenyl)-1H-pyrazol-1-yl]propanoate]	≥ 7.00
O=C(O)CCn1cc(-c2cccc(Nc3cc(C(F)(F)F)ccn3)n2)cn1 [Example 1.19, 3-[4-(6-{[4-(trifluoromethyl)pyridin-2-yl]amino}pyridin-2-yl)-1H-pyrazol-1-yl]propanoic acid]	≥ 7.00
COc1nc(Nc2cc(C)cc(-c3cnn(CCC(N)=O)c3)c2)ncc1F [Example 2.11, 3-(4-{3-[(5-fluoro-4-methoxypyrimidin-2-yl)amino]-5-methylphenyl}-1H-pyrazol-1-yl)propanamide]	≥ 7.00
Cc1cc(Nc2nccc(C(F)(F)F)n2)cc(-c2cnn(CC3CC3)c2)c1 [Example 3.21, N-{3-[1-(cyclopropylmethyl)-1H-pyrazol-4-yl]-5-methylphenyl}-4-(trifluoromethyl)pyrimidin-2-amine]	≥ 7.00
Cc1cc(Nc2nccc(C)n2)cc(-c2cnn(CCC(N)=O)c2)c1 [Example 2.12, 3-(4-{3-methyl-5-[(4-methylpyrimidin-2-yl)amino]phenyl}-1H-pyrazol-1-yl)propanamide]	≥ 7.00
Cc1cc(Nc2cc(C(F)F)ccn2)nc(-c2cnn(C(C)C3CNC(=O)O3)c2)c1 (centres unmarked) [Example 3.88, 5-{1-[4-(6-{[4-(difluoromethyl)pyridin-2-yl]amino}-4-methylpyridin-2-yl)-1H-pyrazol-1-yl]ethyl}-1,3-oxazolidin-2-one]	≥ 7.00
Cc1cc(Nc2nccc(C(F)(F)F)n2)cc(-c2cnn(C3C=CCCC3)c2)c1 (centres unmarked) [Example 1.5, N-[3-(1-cyclohex-2-en-1-yl-1H-pyrazol-4-yl)-5-methylphenyl]-4-(trifluoromethyl)-pyrimidin-2-amine]	≥ 7.00
CC(=O)Nc1cc(Nc2nccc(C(F)(F)F)n2)cc(-c2cnn(C3CCC(C(=O)O)CC3)c2)c1 (centres unmarked) [Example 1.53, 4-{4-[3-(acetylamino)-5-{[4-(trifluoromethyl)pyrimidin-2-yl]amino}phenyl]-1H-pyrazol-1-yl}cyclohexanecarboxylic acid]	≥ 7.00
Cc1cc(Nc2nccc(C(F)F)n2)cc(-c2cnn([C@H]3CC[C@H](C(=O)O)CC3)c2)c1 [Example 2.61, trans-4-[4-(3-{[4-(difluoromethyl)pyrimidin-2-yl]amino}-5-methylphenyl)-1H-pyrazol-1-yl]cyclohexanecarboxylic acid]	≥ 7.00
Cc1cc(Nc2ncc(F)c(C)n2)cc(-c2cnn(C[C@](C)(O)CO)c2)c1 [Example 2.94, (2S)-3-(4-{3-[(5-fluoro-4-methylpyrimidin-2-yl)amino]-5-methylphenyl}-1H-pyrazol-1-yl)-2-methylpropane-1,2-diol]	≥ 7.00
C[C@@](O)(CO)Cn1cc(-c2cc(F)cc(Nc3nccc(C(F)(F)F)n3)c2)cn1 [Example 2.91, (2S)-3-[4-(3-fluoro-5-{[4-(trifluoromethyl)pyrimidin-2-yl]amino}phenyl)-1H-pyrazol-1-yl]-2-methylpropane-1,2-diol]	≥ 7.00
Cc1cc(Nc2cc(C(F)(F)F)ccn2)nc(-c2cnn(CC3CNC(=O)O3)c2)c1 (centres unmarked) [Example 1.29, 5-{[4-(4-methyl-6-{[4-(trifluoromethyl)pyridin-2-yl]amino}pyridin-2-yl)-1H-pyrazol-1-yl]methyl}-1,3-oxazolidin-2-one]	≥ 7.00
Cc1cc(Nc2nccc(C)n2)cc(-c2cnn(CC3(C)CNC(=O)O3)c2)c1 (centres unmarked) [Example 3.121, 5-methyl-5-[(4-{3-methyl-5-[(4-methylpyrimidin-2-yl)amino]phenyl}-1H-pyrazol-1-yl)methyl]-1,3-oxazolidin-2-one]	≥ 7.00

The next lines start with the values.

pIC50	Compound
≥ 7.00	Cc1cc(Nc2nccc(C(F)F)n2)cc(-c2cnn(CC(C)(C)NC(=O)C3CC3)c2)c1 [Example 26.2, N-{2-[4-(3-{[4-(difluoromethyl)pyrimidin-2-yl]amino}-5-methylphenyl)-1H-pyrazol-1-yl]-1,1-dimethylethyl}cyclopropanecarboxamide]
≥ 7.00	Cc1cc(Nc2nccc(C(F)F)n2)cc(-c2cnn(C3CCCC(O)C3O)c2)c1 (single isomer, unassigned) [Example 10.4, 3-[4-(3-{[4-(difluoromethyl)pyrimidin-2-yl]amino}-5-methylphenyl)-1H-pyrazol-1-yl]cyclohexane-1,2-diol]
≥ 7.00	Cc1cc(Nc2nccc(C(F)F)n2)cc(-c2cnn(C3CCCC(C)(O)C3O)c2)c1 (centres unmarked) [Example 22.6, 3-[4-(3-{[4-(difluoromethyl)pyrimidin-2-yl]amino}-5-methylphenyl)-1H-pyrazol-1-yl]-1-methylcyclohexane-1,2-diol]
≥ 7.00	Cc1cc(Nc2nccc(C)n2)cc(-c2cnn(C[C@H](O)C(N)=O)c2)c1 [Example 6.3, (2S)-2-hydroxy-3-(4-{3-methyl-5-[(4-methylpyrimidin-2-yl)amino]phenyl}-1H-pyrazol-1-yl)propanamide]
≥ 7.00	Cc1cc(Nc2nccc(C(F)F)n2)cc(-c2cnn(CC3OC(=O)NC3C)c2)c1 (single isomer, unassigned) [Example 23.13, 5-{[4-(3-{[4-(difluoromethyl)pyrimidin-2-yl]amino}-5-methylphenyl)-1H-pyrazol-1-yl]methyl}-4-methyl-1,3-oxazolidin-2-one]
≥ 7.00	Cc1cc(Nc2nccc(C(F)(F)F)n2)cc(-c2cnn(C3CCC(C(N)=O)CC3)c2)c1 (centres unmarked) [Example 8.6, 4-[4-(3-methyl-5-{[4-(trifluorometh-yl)pyrimidin-2-yl]amino}-phenyl)-1H-pyrazol-1-yl]cyclohexane-carboxamide]
≥ 7.00	Cc1cc(Nc2nccc(C(F)F)n2)cc(-c2cnn(CC(C)(C)NC(=O)NC(C)(C)C)c2)c1 [Example 27.7, 1-tert-butyl-3-{2-[4-(3-{[4-(difluoromethyl)pyrimidin-2-yl]amino}-5-methylphenyl)-1H-pyrazol-1-yl]-1,1-dimethylethyl}urea]
≥ 7.00	Cc1cc(Nc2nccc(C(F)F)n2)cc(-c2cnn(CC(C)(C)NS(=O)(=O)C3CC3)c2)c1 [Example 27.5, N-{2-[4-(3-{[4-(difluoromethyl)pyrimidin-2-yl]amino}-5-methylphenyl)-1H-pyrazol-1-yl]-1,1-dimethylethyl}cyclopropanesulfonamide]
≥ 7.00	Cc1cc(Nc2nccc(C(F)F)n2)cc(-c2cnn(CC(C)(O)C(F)(F)F)c2)c1 (single isomer, unassigned) [Example 24.1, (S or R)-3-(4-(3-((4-(difluoromethyl)pyrimidin-2-yl)amino)-5-methylphenyl)-1H-pyrazol-1-yl)-1,1,1-trifluoro-2-methylpropan-2-ol]
≥ 7.00	Cc1cc(Nc2nccc(C(F)F)n2)cc(-c2cnn(CC(C)(C)NS(C)(=O)=O)c2)c1 [Example 27.4, N-{2-[4-(3-{[4-(difluoromethyl)pyrimidin-2-yl]amino}-5-methylphenyl)-1H-pyrazol-1-yl]-1,1-dimethylethyl}methanesulfonamide]
